We go through 6 compounds from US7595327B2, “Beta-sulfonamide hydroxamic acid inhibitors of tace/matrix metalloproteinase” (priority 2005, dated 2009).

The target of one test is T1, recombinant human MMP-9 (Homo sapiens, UniProt P14780).
T1 construct: purchased Calbiochem PF024
As to the kind of experiment: In-vitro fluorescence assay of MMP-9 activity. The test is classed as biochemical. The protocol:
The method was similar to that for the determination of MMP-1 activity, described above, with the following differences. Active, recombinant human MMP-7 was purchased from Calbiochem (catalog #444270; expressed in E. coli, 19 kDa). […] The concentration of the substrate stock was spectrophotometrically determined using the extinction coefficient at 410 nm of 7500 M^−1 cm^−1. The assay buffer (pH 7.4) consisted of 50 mM Hepes, 100 mM NaCl, 5 mM CaCI2, and 0.005% Brij-35. […] The plates were then incubated at room temperature for 30 minutes. The enzymatic reactions were initiated by adding substrate to a final concentration of 15 μM and were mixed by pipelting up and down. The final DMSO concentration in the assay was 10% and the final, total assay volume was 200 μl. […].
The method was essentially the same as for the determination of MMP-7 activity, described above, except that the source of enzyme in the assay was recombinant human MMP-9 (83 kDa) was purchased from Calbiochem (catalog #PF024), the final enzyme concentration was 0.5-1.0 nM, and the final substrate concentration was 20 μM.

Test [1] concerns the target T2, recombinant human catalytic domain of MMP-14 (Homo sapiens, UniProt P50281).
T2 construct: 20 kDa; purchased Chemicon International, Inc. CC1041
As to the kind of experiment: In-vitro fluorescence assay of MMP-14 activity. The test is classed as biochemical. The protocol: The results were analyzed as described for MMP-13 activity, above.

In test [2] the test system is LPS-induced TNF-α secretion in human whole blood. Kind of test: Human whole blood assay for LPS-induced TNF-α secretion. Particulars: Homo sapiens, LPS 100 ng/ml, read-out: TNF Secretion HWB IC50. The test is classed as cell-based. Put shortly:
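Fresh blood from healthy volunteers pre-incubated 1 h at 37° C with compound (final DMSO <0.2%), then stimulated with 100 ng/ml LPS for 4 h or overnight at 37° C with rotation. Supernatant TNF-α measured by ELISA; percent inhibition and IC50 derived by curve fitting.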

T1 sequence (P14780 107-707 limits assumed): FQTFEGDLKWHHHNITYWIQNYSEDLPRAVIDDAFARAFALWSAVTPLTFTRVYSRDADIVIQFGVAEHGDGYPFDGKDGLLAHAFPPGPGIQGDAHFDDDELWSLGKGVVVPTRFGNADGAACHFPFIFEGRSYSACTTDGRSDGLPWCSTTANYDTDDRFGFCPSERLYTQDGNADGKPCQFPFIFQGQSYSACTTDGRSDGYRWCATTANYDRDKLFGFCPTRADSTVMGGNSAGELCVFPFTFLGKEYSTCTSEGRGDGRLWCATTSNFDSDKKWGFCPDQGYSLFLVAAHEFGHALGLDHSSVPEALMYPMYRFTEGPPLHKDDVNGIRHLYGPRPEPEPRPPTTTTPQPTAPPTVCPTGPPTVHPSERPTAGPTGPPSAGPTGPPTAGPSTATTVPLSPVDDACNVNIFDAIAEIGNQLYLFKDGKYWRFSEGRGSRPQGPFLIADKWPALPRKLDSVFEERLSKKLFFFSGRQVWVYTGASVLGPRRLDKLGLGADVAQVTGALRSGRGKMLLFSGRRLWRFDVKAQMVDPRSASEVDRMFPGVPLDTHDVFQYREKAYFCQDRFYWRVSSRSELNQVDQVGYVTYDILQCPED

By IC50 is commonly meant the midpoint of a concentration-inhibition curve. With `Cc1cc(COc2ccc(S(=O)(=O)N[C@@H]3CN(S(C)(=O)=O)C[C@@H]3C(=O)NO)cc2)c2ccccc2n1` (relative stereo) [Example 17, cis-N-Hydroxy-4-[({4-[(2-methylquinolin-4-yl)methoxy]phenyl}sulfonyl)amino]-1-(methylsulfonyl) pyrrolidine-3-carboxamide], the values for the IC50 (on recombinant human MMP-9; in test [1]; in test [2]) were greater than 16.7 µM, greater than 16.7 µM and 0.34 µM, respectively.
Regarding `Cc1cc(COc2ccc(S(=O)(=O)N[C@@H]3CN(C=O)C[C@@H]3C(=O)NO)cc2)c2ccccc2n1` (relative stereo) [Example 20, cis-1-Formyl-N-hydroxy-4-[({4-[(2-methylquinolin-4-yl)methoxy]phenyl}sulfonyl)amino]pyrrolidine-3-carboxamide], the figures for the IC50 (on recombinant human MMP-9; in test [1]; in test [2]) were greater than 16.7 µM, greater than 16.7 µM and 0.12 µM, respectively.
`CCNC(=O)N1C[C@H](C(=O)NO)[C@H](NS(=O)(=O)c2ccc(OCc3cc(C)nc4ccccc34)cc2)C1` (relative stereo) [Example 23, cis-1-Ethyl-N-hydroxy-4-[({4-[(2-methylquinolin-4-yl)methoxy]phenyl}sulfonyl)amino]pyrrolidine-1,3-dicarboxamide]: the results for the IC50 (at recombinant human MMP-9; in test [1]; in test [2]) were greater than 16.7 µM, greater than 16.7 µM and 0.28 µM, respectively.
On to `Cc1cc(COc2ccc(S(=O)(=O)N[C@H]3COC[C@H]3C(=O)NO)cc2)c2ccccc2n1` (stereo in doubt) [Example 26, (3S,4R)-4-[4-(2-Methyl-quinolin-4-ylmethoxy)-benzenesulfonylamino]-tetrahydro-furan-3-carboxylic acid hydroxyamide], for which the IC50 was greater than 16.7 µM on recombinant human MMP-9, greater than 16.7 µM in test [1] and 0.2 µM in test [2].
For the compound `Cc1cc(COc2ccc(S(=O)(=O)N[C@@H]3CCC[C@@H]3C(=O)NO)cc2)c2ccccc2n1` [Example 13, (1S,2R)-N-Hydroxy-2-[({4-[(2-methylquinolin-4-yl)methoxy]phenyl}sulfonyl)amino]cyclopentanecarboxamide], the half-maximal inhibitory concentration (IC50) was greater than 16.7 µM at recombinant human MMP-9, greater than 16.7 µM in test [1] and 0.25 µM in test [2].
In the case of `Cc1cc(COc2ccc(S(=O)(=O)N[C@@H]3CN(C(=O)NC(C)(C)C)CC[C@@H]3C(=O)NO)cc2)c2ccccc2n1` [Example 35, 3-[4-(2-Methyl-quinolin4-ylmethoxy)-benzenesulfonylamino]-piperidine-1,4-dicarboxylic acid 1-tert-butylamide 4-hydroxyamide], the IC50 is greater than 16.7 µM on recombinant human MMP-9, greater than 16.7 µM in test [1] and 0.8 µM in test [2].
